Consider 45 compounds from patent publication US5714485A, “Piperidine and hexahydropyridazine thrombin inhibitors” (Merck & Co., Inc., priority 1997, dated 1998).

Read-outs that look alike come from different tables or passages of the source.

For assay [1], the target named is T1, human a-thrombin (Homo sapiens, UniProt P00734).
T1 construct: human a-thrombin
Put plainly: In vitro assay for determining proteinase inhibition: human a-thrombin. Format: biochemical. The settings on record: for relative activity of diastereomers in a thrombin inhibition assay: compared with the other diastereomer. The procedure:
Assays of human a-thrombin and bovine trypsin were performed at 25° C. in 0.05M TRIS buffer pH 7.4, 0.15M NaCl, 0.1% PEG. Trypsin assays also contained 1 mM CaCl2.
Concentrations of stock solutions of Z-GPR-afc were determined from measurements of absorbance at 380 nm of the 7-amino-4-trifluoromethyl coumarin produced upon complete hydrolysis of an aliquot of the stock solution by thrombin.
Activity assays were performed by diluting a stock solution of substrate at least tenfold to a final concentration ≥0. I Km into a solution containing enzyme or enzyme equilibrated with inhibitor. Times required to achieve equilibration between enzyme and inhibitor were determined in control experiments. Initial velocities of product formation in the absence (Vo) or presence of inhibitor (Vi) were measured. Assuming competitive inhibition, and that unity is negligible compared Km /[S], […] (where [S], [I], and e respectively represent the total concentrations, of substrate, inhibitor and enzyme), the equilibrium constant (Ki) for dissociation of the inhibitor from the enzyme can be obtained from the dependence of Vo /Vi on [I] shown in equation 1.

Assay [2] has as its system thrombotic occlusion of the right carotid artery. Put plainly: In vivo rat ferric chloride assay measuring thrombotic occlusion. Also noted: species or system Male Sprague-Dawley rats. The settings on record: FeCl3, rats. The procedure: Applicants have conducted in vivo studies of the compounds claimed herein using the following rat ferric chloride assay.
In the assay used to determine in vivo activity of the thrombin inhibitors or the invention, Male Sprague-Dawley rats (body weights 200-350 grams) were anesthetized with dial-urethane solution (0.1 ml/100 gm body weight i.p.), and a lateral tail vein was cannulated with a 23 gauge needle connected to a 12 inch length of PE50 tubing. The tubing was attached to a 3-way valve by a tubing adapter. Saline (control) or test compound, as appropriate, was administered via the tail vein catheter. A tracheostomy was performed with a 0.75 inch length of PE205 tubing. The right carotid artery was exposed and a 1.3 mm diameter Doppler flow probe was placed on the vessel. Body temperature was maintained at 37° C. using a heat lamp.
Rats (8-10/group) were randomized to continuous intravenous infusions of saline or test compound administered via the tail vein at a rate of 0.028 ml/min. Treatment infusions were initiated 120 min before the placement of a 3 mm square piece of Whatman No. 1 filter paper saturated with 35% FeCl3 onto the exposed carotid artery distal to the flow probe. […] Time to occlusion was defined as the time from application of FeCl3 to thrombotic occlusion of the vessel.

Setting [3] is: Table 1, read-out: Ki vs Thrombin.
Setting [4] is: Table 1, part headed Ki (NM), read-out: Ki vs thrombin.
Setting [5] is: Table 2, read-out: Ki vs thrombin.
Setting [6] is: Table 2, lower part, head Ki(nM) without target, read-out: Ki.

For `N[C@H]1CC[C@H](CNC(=O)[C@@H]2CCCN2C(=O)C2Cc3ccccc3CN2)CC1` (some centres unmarked), the Ki in assay [1] (setting [3]) was 152 nM.
The same measure, in the same setting: the value for `CN[C@H](CC1CCCCC1)C(=O)N1CCC[C@H]1C(=O)NC[C@H]1CC[C@H](N)CC1` was 2.3 nM.
Same read-out and setting: with `N[C@H](Cc1ccc2ccccc2c1)C(=O)N1CCC[C@H]1C(=O)NC[C@H]1CC[C@H](N)CC1` the figure was 27 nM.
Regarding `N[C@H](Cc1cccnc1)C(=O)N1CCC[C@H]1C(=O)NC[C@H]1CC[C@H](N)CC1`, the inhibition constant Ki in assay [1] (setting [3]) is 30 nM.
Same read-out and setting: the value for `N[C@H]1CC[C@H](CNC(=O)[C@@H]2CCCN2C(=O)[C@H](O)Cc2ccccc2)CC1` was 63 nM; that for `CC(=O)N[C@H](Cc1ccccc1)C(=O)N1CCC[C@H]1C(=O)NC[C@H]1CC[C@H](N)CC1` was 170 nM.
Still for that read-out and setting: the value for `CC(C)(C)OC(=O)N[C@H](Cc1ccccc1)C(=O)N1CCC[C@H]1C(=O)NC[C@H]1CC[C@H](N)CC1` was 9.4 nM.
`N[C@H]1CC[C@H](CNC(=O)[C@@H]2CCCN2C(=O)[C@@H](Cc2ccccc2)NC(=O)OCc2ccccc2)CC1`: the Ki in assay [1] (setting [3]) amounted to 3.7 nM.
As for `N[C@H]1CC[C@H](CNC(=O)[C@@H]2CCCN2C(=O)[C@@H](Cc2ccccc2)NC(=O)OCc2ccncc2)CC1`, the Ki in assay [1] (setting [4]) was 15 nM.
`CC(C)(C)OC(=O)N[C@@H](C(=O)N1CCC[C@H]1C(=O)NC[C@H]1CC[C@H](N)CC1)c1ccccc1`: the Ki in assay [1] (setting [4]) came to 6.8 nM.
The same measure, in the same setting: with `CC(C)(C)OC(=O)N[C@H](CC1CCCCC1)C(=O)N1CCC[C@H]1C(=O)NC[C@H]1CC[C@H](N)CC1` the figure was 12 nM; with `CC(C)(C)OC(=O)N[C@H](CCc1ccccc1)C(=O)N1CCC[C@H]1C(=O)NC[C@H]1CC[C@H](N)CC1`, 50 nM.
The same measure, in the same setting: with `N[C@H]1CC[C@H](CNC(=O)[C@@H]2CCCN2C(=O)[C@@H](Cc2c[nH]c3ccccc23)NC(=O)OCc2ccccc2)CC1` the figure was 16 nM.
On to `CC(C)(C)OC(=O)N[C@@H](C(=O)N1CCC[C@H]1C(=O)NC[C@H]1CC[C@H](N)CC1)[C@@H](OC(C)(C)C)c1ccccc1`, for which, in assay [1] (setting [3]), the Ki came to 8 nM.
On the same count and under the same terms, with `N[C@H]1CC[C@H](CNC(=O)[C@@H]2CCCN2C(=O)[C@@H](CC2CCCCC2)NS(=O)(=O)CC(F)(F)F)CC1` the figure was 3 nM; with `N[C@H]1CC[C@H](CNC(=O)[C@@H]2CCCN2C(=O)[C@@H](Cc2ccccc2)NCCc2ccccc2)CC1`, 4 nM; with `CC(C)(C)OC(=O)N[C@@H](C(=O)N1CCC[C@H]1C(=O)NC[C@H]1CC[C@H](N)CC1)C(OC(C)(C)C)c1ccccc1` (some centres unmarked), 200 nM.
Turning to `N[C@@H](C(=O)N1CCC[C@H]1C(=O)NC[C@H]1CC[C@H](N)CC1)C(c1ccccc1)c1ccccc1`, the inhibition constant Ki in assay [1] (setting [5]) came out at 0.12 nM.
On the same count and under the same terms, the value for `N[C@H]1CC[C@H](CNC(=O)[C@@H]2CCCN2C(=O)CC(c2ccccc2)c2ccccc2)CC1` was 2 nM.
In assay [1], `N[C@H]1CC[C@H](CNC(=O)[C@@H]2CCCN2C(=O)[C@@H](Cc2ccccc2)NS(=O)(=O)Cc2ccccc2)CC1` showed a Ki of 0.4 nM.
For `CC(C)(C)C[C@@H](NS(=O)(=O)Cc1ccccc1)C(=O)N1CCC[C@H]1C(=O)NC[C@H]1CC[C@H](N)CC1`, in assay [1] (setting [5]), the inhibition constant Ki worked out at 0.4 nM.
On the same count and under the same terms, the value for `N[C@H]1CC[C@H](CNC(=O)[C@@H]2CCCN2C(=O)[C@@H](Cc2ccccc2)NCC(=O)O)CC1` was 1.3 nM; that for `CC(C)(C)OC(=O)N[C@@H](C(=O)N1CCC[C@H]1C(=O)NC[C@H]1CC[C@H](N)CC1)C(c1ccccc1)c1ccccc1` was 0.102 nM.
On the same count and under the same terms, the value for `CC(C)(C)OC[C@@H](NS(=O)(=O)CC12CCC(CC1=O)C2(C)C)C(=O)N1CCC[C@H]1C(=O)NC[C@H]1CC[C@H](N)CC1` (some centres unmarked) was 0.05 nM.
Regarding `CC1(C)C2CCC1(CS(=O)(=O)N[C@H](CC1CCCCC1)C(=O)N1CCC[C@H]1C(=O)NC[C@H]1CC[C@H](N)CC1)C(=O)C2` (some centres unmarked), the Ki in assay [1] (setting [5]) stood at 0.1 nM.
For `N[C@H]1CC[C@H](CNC(=O)[C@@H]2CCCN2C(=O)C2(O)c3ccccc3-c3ccccc32)CC1`, the Ki in assay [1] (setting [6]) was found to be 1.5 nM.
Same read-out and setting: the value for `N[C@H]1CC[C@H](CNC(=O)[C@@H]2CCCN2C(=O)C2COc3ccccc3O2)CC1` (some centres unmarked) was 55 nM.
Compound `N[C@H]1CC[C@H](CNC(=O)[C@@H]2CCCN2C(=O)C2(O)c3ccccc3Sc3ccccc32)CC1` returned an inhibitory constant (Ki) in assay [1] of 3 nM.
Turning to `N[C@H]1CC[C@H](CNC(=O)[C@@H]2CCCN2C(=O)[C@H](NCC(=O)O)C(c2ccc(Cl)cc2)c2ccc(Cl)cc2)CC1`, the inhibitory constant (Ki) in assay [1] (setting [6]) was 0.13 nM.
In the case of `N[C@@H](C(=O)N1CCC[C@H]1C(=O)NC[C@H]1CC[C@H](N)CC1)C(c1ccccc1)c1ccccc1` (single isomer, unassigned) [Example 7 less polar diastereomer, trans-4-Aminocyclohexylmethyl L- and D-(3,3)-diphenyl alanyl-L-proline amide], the “relative activity of diastereomers in a thrombin inhibition assay” value in assay [1] is recorded as “more active isomer”.
On the same count and under the same terms, the value for `N[C@H]1CC[C@H](CNC(=O)[C@@H]2CCCN2C(=O)[C@H](NS(=O)(=O)Cc2ccccc2)C(c2ccccc2)c2ccccc2)CC1` (single isomer, unassigned) [Example 9 less polar diastereomer, trans-4-Amino-cyclohexylmethyl N-(benzylsulfonyl)-D and L-3,3-diphenylalanyl-L-proline amide] was “more active isomer”.
In the case of `CN[C@H](Cc1ccc(Cl)c(Cl)c1)C(=O)N1CCC[C@H]1C(=O)NC[C@H]1CC[C@H](N)CC1` [3,4-Cl2PhCH2, CH3 NH], the Ki in assay [1] (setting [3]) stood at 2.9 nM.
On the same count and under the same terms, with `N[C@H]1CC[C@H](CNC(=O)[C@@H]2CCCN2C(=O)CCc2ccc(Cl)c(Cl)c2)CC1` [3,4-Cl2PhCH2, H] the figure was 414 nM.
Still for that read-out and setting: the value for `N[C@H](Cc1ccc(Cl)c(Cl)c1)C(=O)N1CCC[C@H]1C(=O)NC[C@H]1CC[C@H](N)CC1` [3,4-Cl2PhCH2, NH2] was 1.5 nM.
For `CC(C)(C)OC[C@@H](NC(=O)OC(C)(C)C)C(=O)N1CCC[C@H]1C(=O)NC[C@H]1CC[C@H](N)CC1` [BocNH, CH2 O-tBu], the Ki in assay [1] (setting [4]) was 6 nM.
`N[C@H]1CC[C@H](CNC(=O)[C@@H]2CCCN2C(=O)CCC2CCCCC2)CC1` [C6 H11 CH2, H]: in assay [1] (setting [3]), the Ki was 150 nM.
With `CC(C)(C)C[C@@H](NC(=O)OCc1ccccc1)C(=O)N1CCC[C@H]1C(=O)NC[C@H]1CC[C@H](N)CC1` [CbzNH, CH2 -tBu], the Ki in assay [1] (setting [4]) is 2.3 nM.
`CC(=O)N1CCC[C@H]1C(=O)NC[C@H]1CC[C@H](N)CC1` [H, H]: the inhibitory constant (Ki) in assay [1] (setting [3]) is above 10000 nM.
Consider `CS(=O)(=O)N[C@H](Cc1ccccc1)C(=O)N1CCC[C@H]1C(=O)NC[C@H]1CC[C@H](N)CC1` [PhCH2, CH3 SO2 NH], for which the inhibition constant Ki in assay [1] (setting [3]) was 17 nM.
On the same count and under the same terms, the value for `N[C@H]1CC[C@H](CNC(=O)[C@@H]2CCCN2C(=O)CCc2ccccc2)CC1` [PhCH2, H] was 680 nM; that for `N[C@H](Cc1ccccc1)C(=O)N1CCC[C@H]1C(=O)NC[C@H]1CC[C@H](N)CC1` [PhCH2, NH2] was 3.4 nM.
Take `N[C@H]1CC[C@H](CNC(=O)[C@@H]2CCCN2C(=O)[C@H](NCC(=O)O)C(c2ccccc2)c2ccccc2)CC1` [drawing 39]: in assay [1] (setting [6]), the inhibition constant (Ki) stood at 0.17 nM.
On the same count and under the same terms, the value for `C[C@@H](N[C@@H](C(=O)N1CCC[C@H]1C(=O)NC[C@H]1CC[C@H](N)CC1)C(c1ccccc1)c1ccccc1)C(=O)O` [drawing 41] was 0.05 nM.
As to `N[C@H]1CC[C@H](CNC(=O)[C@@H]2CCCN2C(=O)[C@H](NCC(=O)O)C(c2ccccc2)c2ccccc2)CC1` [drawing 47], the figures for the Incidence of occlusion in assay [2] (i.v. dose 1 μg/kg/min) and in assay [2] (i.v. dose 10 μg/kg/min) were 1/6 and 0/6, respectively.
For `C[C@@H](N[C@@H](C(=O)N1CCC[C@H]1C(=O)NC[C@H]1CC[C@H](N)CC1)C(c1ccccc1)c1ccccc1)C(=O)O` [drawing 48], in that order: 1/6 and 0/6.

Usually Ki stands for a measure of affinity in units of concentration, obtained from inhibition or displacement.
